Experiment [1] deals with MCF7. Briefly: Growth inhibition of human MCF7 cells after 48 hrs by MTT assay. It counts as functional, cell-based.
Experiment [2] deals with Hep 3B2. Briefly: Cytotoxicity against human Hep3B cells by MTT assay. It counts as functional, cell-based.
For experiment [3], the system named is A549. The experiment is described as follows: Cytotoxicity against human A549 cells by MTT assay. It counts as functional, cell-based.
In experiment [4] the test system is MCF7. The experiment is described as follows: Cytotoxicity against human MCF7 cells by MTT assay. It is filed as functional, cell-based.
For experiment [5], the system named is Hep 3B2. Briefly: Growth inhibition of human Hep3B cells after 48 hrs by MTT assay. It is filed as functional, cell-based.
The test system of experiment [6] is A549. The experiment is described as follows: Growth inhibition of human A549 cells after 48 hrs by MTT assay. It counts as functional, cell-based.
For experiment [7], the system named is HepG2. Briefly: Growth inhibition of human HepG2 cells after 48 hrs by MTT assay. It is filed as functional, cell-based.
Experiment [8] deals with HepG2. The experiment is described as follows: Cytotoxicity against human HepG2 cells by MTT assay. It counts as functional, cell-based.
Experiment [9] relates to Hep 3B2. Briefly: Induction of apoptosis in human Hep3B cells assessed as effect on cleaved PARP level at 15 to 60 uM by Western blot analysis. It counts as functional, cell-based.
Experiment [10] has as its system Hep 3B2. The experiment is described as follows: Induction of apoptosis in human Hep3B cells assessed as increase in FADD level by Western blot analysis. It is filed as functional, cell-based.
The test system of experiment [11] is Hep 3B2. Briefly: Induction of apoptosis in human Hep3B cells assessed as nuclear fragmentaion at 30 uM after 48 hrs by Hoechst 33258 staining-based fluorescence microscopy. It counts as functional, cell-based.
Experiment [12] concerns Hep 3B2. Briefly: Induction of apoptosis in human Hep3B cells assessed as increase in caspase 8 level by Western blot analysis. It counts as functional, cell-based.
The test system of experiment [13] is Hep 3B2. The experiment is described as follows: Induction of apoptosis in human Hep3B cells assessed as cell shrinkage at 30 uM after 48 hrs by phase contrast microscopic analysis. It is filed as functional, cell-based.
Experiment [14] relates to Hep 3B2. Briefly: Induction of apoptosis in human Hep3B cells assessed as increase in caspase 9 level at 30 uM in presence of autophagy inhibitor bafilomycin A1 by Western blot analysis. It is filed as functional, cell-based.
Experiment [15] deals with T1, AMP-activated protein kinase, AMPK (Homo sapiens) (UniProt P54646+O43741+P54619+Q9UGJ0+Q9Y478+Q13131+Q9UGI9). Briefly: Increase in AMPK phosphorylation at Thr172 in human Hep3B cells at 30 uM in presence of autophagy inhibitor bafilomycin A1 by Western blot analysis. It is filed as cell-based.
Experiment [16] concerns Hep 3B2. Briefly: Down regulation of AMPK expression in human Hep3B cells at 30 uM in presence of autophagy inhibitor bafilomycin A1 by Western blot analysis. It counts as functional, cell-based.
Experiment [17] deals with Hep 3B2. Briefly: Induction of apoptosis in human Hep3B cells assessed as chromatin condensation at 30 uM after 48 hrs by Hoechst 33258 staining-based fluorescence microscopy. It counts as functional, cell-based.
The test system of experiment [18] is Hep 3B2. Briefly: Induction of apoptosis in human Hep3B cells assessed as nuclear fragmentation at 30 uM in presence of autophagy inhibitor bafilomycin A1 by Hoechst 33258 staining-based fluorescence microscopy. It counts as functional, cell-based.
The subject of experiment [19] is Hep 3B2. Briefly: Induction of apoptosis in human Hep3B cells assessed as increase in FADD level at 30 uM in presence of autophagy inhibitor bafilomycin A1 by Western blot analysis. It counts as functional, cell-based.
For experiment [20], the system named is Hep 3B2. Briefly: Induction of apoptosis in human Hep3B cells assessed as increase in caspase 8 level at 30 uM in presence of autophagy inhibitor bafilomycin A1 by Western blot analysis. It is filed as functional, cell-based.
The subject of experiment [21] is Hep 3B2. Briefly: Induction of autophagy in human Hep3B cells assessed as decrease in p62 level at 15 to 60 uM by Western blot analysis. It is filed as functional, cell-based.
In experiment [22] the test system is Hep 3B2. The experiment is described as follows: Induction of apoptosis in human Hep3B cells assessed as increase in Bax level by Western blot analysis. It is filed as functional, cell-based.
The test system of experiment [23] is Hep 3B2. The experiment is described as follows: Induction of apoptosis in human Hep3B cells assessed as chromatin condensation at 30 uM in presence of autophagy inhibitor bafilomycin A1 by Hoechst 33258 staining-based fluorescence microscopy. It is filed as functional, cell-based.
The subject of experiment [24] is Hep 3B2. The experiment is described as follows: Cytotoxicity against human Hep3B cells assessed as reduction in cell growth at 30 uM in presence of autophagy inhibitor bafilomycin A1 by MTT assay. It is filed as functional, cell-based.
The subject of experiment [25] is Hep 3B2. The experiment is described as follows: Induction of autophagy in human Hep3B cells at 30 uM after 48 hrs by MDC staining-based fluorescence microscopic method. It counts as functional, cell-based.
The test system of experiment [26] is Hep 3B2. The experiment is described as follows: Induction of apoptosis in human Hep3B cells assessed as membrane blebbing at 30 uM after 48 hrs by phase contrast microscopic analysis. It is filed as functional, cell-based.
Experiment [27] deals with Hep 3B2. Briefly: Induction of apoptosis in human Hep3B cells assessed as increase in cleaved PARP level at 30 uM in presence of autophagy inhibitor bafilomycin A1 by Western blot analysis. It counts as functional, cell-based.
The test system of experiment [28] is Hep 3B2. Briefly: Induction of apoptosis in human Hep3B cells assessed as increase in caspase 7 level at 30 uM in presence of autophagy inhibitor bafilomycin A1 by Western blot analysis. It counts as functional, cell-based.
For experiment [29], the system named is Hep 3B2. The experiment is described as follows: Induction of apoptosis in human Hep3B cells assessed as increase in caspase 9 level by Western blot analysis. It is filed as functional, cell-based.
Experiment [30] concerns Hep 3B2. The experiment is described as follows: Induction of autophagy in human Hep3B cells assessed as increase in conversion of LC3-1 to LC3-2 at 10 to 60 uM by Western blot analysis. It is filed as functional, cell-based.
Experiment [31] has as its system Hep 3B2. Briefly: Induction of apoptosis in human Hep3B cells assessed as increase in Bax level at 30 uM in presence of autophagy inhibitor bafilomycin A1 by Western blot analysis. It counts as functional, cell-based.
Experiment [32] deals with Hep 3B2. Briefly: Induction of apoptosis in human Hep3B cells assessed as increase in caspase 7 level by Western blot analysis. It counts as functional, cell-based.
The subject of experiment [33] is Hep 3B2. The experiment is described as follows: Effect on AMPK expression in human Hep3B cells at 15 to 60 uM by Western blot analysis. It counts as functional, cell-based.
The test system of experiment [34] is Hep 3B2. Briefly: Induction of apoptosis in human Hep3B cells assessed as decrease in PARP level at 15 to 60 uM by Western blot analysis. It counts as functional, cell-based.
The target of experiment [35] is T1, AMP-activated protein kinase, AMPK (Homo sapiens). The experiment is described as follows: Increase in AMPK phosphorylation at Thr172 in human Hep3B cells at 15 to 60 uM by Western blot analysis. It counts as cell-based.
The subject of experiment [36] is Hep 3B2. Briefly: Induction of apoptosis in human Hep3B cells assessed as decrease in PARP level at 30 uM in presence of autophagy inhibitor bafilomycin A1 by Western blot analysis. It is filed as functional, cell-based.

Active and inactive are the calls of the source. The rule behind the calls is not given here.

As for `CC(C)=CCc1c([C@@H]2CCc3ccc(O)cc3O2)cc2c(c1O)OC(C)(C)C=C2` [KAZINOL B], the “growth inhibition (GI)” value in experiment [1], in experiment [5], in [6] and in experiment [7] was “Dose-dependent effect” in each case. Further, the IC50 in experiment [2] is 39 µM; in experiment [3], over 100 µM; in experiment [4], over 100 µM; in experiment [8] it was 58.4 µM.

With `CC(C)=CCc1c(C2CCc3ccc(O)cc3O2)ccc(O)c1O` (racemic), the “growth inhibition (GI)” value in experiment [1], in experiment [5], in experiment [6] and in experiment [7] was “Dose-dependent effect” each time. The IC50 in experiment [2] is 81.2 µM; in experiment [3] it was over 100 µM; in experiment [4], over 100 µM; in [8] it was over 100 µM.

Turning to `O=c1[nH]cc(F)c(=O)[nH]1` [FLUOROURACIL], the results for the IC50 in experiment [2], in experiment [4] and in experiment [8] were 11.9 µM, 30 µM and 32.6 µM, respectively.

For `CC(C)=CCc1c([C@H]2CCc3ccc(O)cc3O2)cc2c(c1O)OC(C)(C)C=C2`, the outcome in [9], in [11], in [13], in experiment [14], in experiment [15] and in experiment [16] was Active. The result in experiment [17], in experiment [18], in experiment [19], in experiment [20], in [21] and in experiment [23] was Active. In addition, the outcome in [24], in experiment [25], in experiment [26], in experiment [27], in [28] and in experiment [30] was Active. The result in [31], in experiment [34], in experiment [35] and in experiment [36] was Active. For the same compound, the “growth inhibition (GI)” value in experiment [1], in experiment [5], in [6] and in experiment [7] was “Dose-dependent effect” each time. The Activity entry in [10], in experiment [12], in experiment [22], in [29] and in experiment [32] was “Dose-dependent effect” each time. Besides, the IC50 is 30.3 µM in [2], over 100 µM in [3], over 100 µM in experiment [4] and 64.2 µM in experiment [8]. Further, the result in experiment [33] was inactive.

Consider `CC(C)=CCc1c(C2CCc3ccc(O)cc3O2)cc2c(c1O)OC(C)(C)C=C2` (racemic), for which the “growth inhibition (GI)” value in experiment [1], in experiment [5], in experiment [6] and in experiment [7] was “Dose-dependent effect” in each case. For the same compound, the half-inhibitory concentration (IC50) in [2] is 97.8 µM; in experiment [3], 92.5 µM; in experiment [4], over 100 µM; in [8] it was 92.3 µM.

Regarding `CC1(C)C=Cc2c(C3CCc4ccc(O)cc4O3)ccc(O)c2O1` (racemic), the “growth inhibition (GI)” value in [1], in experiment [5], in experiment [6] and in [7] was “Dose-dependent effect” throughout. Further, the IC50 in experiment [2] is 57.4 µM; in [3] it was over 100 µM; in experiment [4], over 100 µM; in [8], 92.8 µM.

`CC(C)=CCc1c([C@H]2CCc3ccc(O)cc3O2)ccc(O)c1O` [KAZINOL U]: the “growth inhibition (GI)” value in experiment [1], in experiment [5], in experiment [6] and in experiment [7] was “Dose-dependent effect” each time. Also, the IC50 in experiment [2] is 51.1 µM; in [3], over 100 µM; in [4], over 100 µM; in experiment [8], over 100 µM.

Consider `CC1(C)CCc2c(C3CCc4ccc(O)cc4O3)ccc(O)c2O1` (racemic), for which the “growth inhibition (GI)” value in experiment [1], in experiment [5], in experiment [6] and in [7] was “Dose-dependent effect” throughout. The IC50 in [2] is 51 µM; in experiment [3], over 100 µM; in experiment [4], over 100 µM; in experiment [8], over 100 µM.

As to `CC1(C)C=Cc2c([C@@H]3CCc4ccc(O)cc4O3)ccc(O)c2O1`, the “growth inhibition (GI)” value in experiment [1], in experiment [5], in experiment [6] and in experiment [7] was “Dose-dependent effect” throughout. Further, the IC50 in [2] is 75.7 µM; in [3], over 100 µM; in experiment [4] it was over 100 µM; in experiment [8] it was over 100 µM.

In the case of `CC1(C)CCc2c([C@@H]3CCc4ccc(O)cc4O3)ccc(O)c2O1`, the “growth inhibition (GI)” value in [1], in [5], in [6] and in experiment [7] was “Dose-dependent effect” each time. Moreover, the IC50 is 44.7 µM in experiment [2], over 100 µM in experiment [3], over 100 µM in experiment [4] and over 100 µM in experiment [8].

On to `CC1(C)C=Cc2c([C@H]3CCc4ccc(O)cc4O3)ccc(O)c2O1`, for which the “growth inhibition (GI)” value in [1], in [5], in [6] and in experiment [7] was “Dose-dependent effect” in each case. The IC50 is 63.6 µM in experiment [2], over 100 µM in [3], over 100 µM in experiment [4] and over 100 µM in [8].

Take `CC(C)=CCc1c([C@@H]2CCc3ccc(O)cc3O2)ccc(O)c1O`: the “growth inhibition (GI)” value in experiment [1], in experiment [5], in experiment [6] and in [7] was “Dose-dependent effect” each time. For the same compound, the IC50 is 62.2 µM in [2], over 100 µM in [3], over 100 µM in experiment [4] and over 100 µM in experiment [8].

With `CC1(C)CCc2c([C@H]3CCc4ccc(O)cc4O3)ccc(O)c2O1`, the “growth inhibition (GI)” value in [1], in experiment [5], in experiment [6] and in experiment [7] was “Dose-dependent effect” each time. For the same compound, the IC50 in experiment [2] is 41.7 µM; in experiment [3] it was over 100 µM; in experiment [4] it was over 100 µM; in experiment [8] it was over 100 µM.

(Values after ChEMBL document CHEMBL4033619, “Autophagy antagonizes apoptosis induced by flavan enantiomers from Daphne giraldii in hepatic carcinoma cells in vitro” (Eur J Med Chem, 2017).)
